From patent US9046767B2, “Photoacid generator, photoresist, coated substrate, and method of forming an electronic device” (ROHM AND HAAS ELECTRONIC MATERIALS LLC, priority 2013, dated 2015)

Experiment: Solubility evaluation of photoacid generators in organic solvents
Assay type: physicochemical
Conditions: 2 weight percent, room temperature; for Solubility in 2-Heptanone: solvent 2-Heptanone; for Solubility in PGMEA: solvent PGMEA; for Solubility in 2-Hepanone/n-Butyl Propionate (1:1 w/w): solvent blend 1:1 w/w; for Solubility in n-Butyl Acetate: solvent n-Butyl Acetate
Experimental: The photoacid generators were evaluated for solubility in a selection of organic solvents. Solubility of each of the compounds PAG-2, PAG-A1, PAG-A2 were obtained for attempts to completely dissolve the PAG at 2 weight percent at room temperature in different organic solvents and solvent blends. The results for the solubility tests (i.e., where the PAG is observed to be completely soluble in the solvent, or is only partially soluble or insoluble based on the presence of insoluble material) are shown in Table 1, where “O” indicates solubility at 2 weight percent, and “X” indicates partial solubility or insolubility at 2 weight percent.

Molecule	Solubility in 2-Heptanone	Solubility in PGMEA	Solubility in 2-Hepanone/n-Butyl Propionate (1:1 w/w)	Solubility in n-Butyl Acetate
4-(2-oxo-2-(2,2,2′,2′-tetramethyl-4,4′-bis(1,3-dioxolan)-5-yl-methoxyethoxy)phenyl)diphenylsulfonium 1-adamantyl-3,3,4,4-tetrafluorobutane sulfonate [PAG-A1]	◯	◯	◯	◯
CC1(C)OCC(C2OC(C)(C)OC2COC(=O)COc2ccc([S+](c3ccccc3)c3ccccc3)cc2)O1.O=C(OCC12CC3CC(CC(O)(C3)C1)C2)C(F)(F)S(=O)(=O)[O-] (stereo not drawn) [PAG-A2, 4-(2-oxo-2-(2,2,2′,2′-tetramethyl-4,4′-bis(1,3-dioxolan)-5-yl-methoxyethoxy)phenyl)diphenylsulfonium 1,1-difluoro-2-(3-hydroxyadamantan-1-yl-methoxy)-2-oxoethanesulfonate]	◯	◯	◯	◯
Triphenylsulfonium 1,1-difluoro-2-((-3-hydroxyadamantan-1-yl)methoxy)-2-oxoethanesulfonate [C. PAG 2, reference compound]	X (“X” indicates partial solubility or insolubility at 2 weight percent)	X (“X” indicates partial solubility or insolubility at 2 weight percent)	X (“X” indicates partial solubility or insolubility at 2 weight percent)	X (“X” indicates partial solubility or insolubility at 2 weight percent)
